Experimental data from patent US11549946B2, “Method for detecting cholangiocarcinoma cells” (National Tsing Hua University, priority 2019, dated 2023).

Key:
[1] = tested on: MMNK1 (immortalized biliary epithelial); assay: Capture test of cell lines by octasaccharide-coated magnetic beads (traditional shaker); type: cell-based; conditions: 30 mins
Excerpt: (§1) The cell lines utilized in this example were SNU478, HuCCT1, Huh28, KKU100, MMNK1, BxPC3, HepG2 and HCT8, SNU478, HuCCT1, Huh28, KKU100, and MMNK1 were supplied by Division of Surgery, National Cheng Kung University Hospital, Taiwan. BxPC3 and HepG2 were supplied by Dr. Kuang Hung Cheng, Institute of Biomedical Science, National Sun Yat-sen University, Taiwan. HCT8 was supplied by Professor Hwan-You Chang, Institute of Life Science, National Tsing Hua University, Taiwan. SNU478, HuCCT1, Huh28 and KKU100 were used as target cells for positive selection, which are CCA cell lines respectively derived from the ampulla of Vater, the intrahepatic-metastasized ascites, the intrahepatic bile duct and the opisthorchis viverrini-related hilar bile duct. For negative selection, MMNK1 (immortalized biliary epithelial), and various types of cancer cell lines, including BxPC3 (pancreatic cancer), HepG2 (liver cancer) and HCT8 (colorectal cancer) were used. Among these cell lines, SNU478, HuCCT1, Huh28, BxPC3 and HCT8 were identically cultured in Roswell Park Memorial Institute 1640 (RPMI 1640, Gibco®, Thermo Fisher Scientific, USA) containing 100 U/mL penicillin and 100 μg/mL streptomycin (Pen Strep, Gibco®, Thermo Fisher Scientific, USA), 10% fetal bovine serum (FBS, Gibco®, Thermo Fisher Scientific, USA). The growth medium for KKU100, MMNK-1 and HepG2 was Dulbecco's modified eagle medium (DMEM, Gibco®, Thermo Fisher Scientific, USA) complemented with the additives described above. All cells were cultured in a humidified incubator at 37° C. under an atmosphere containing 5% CO2.
(§2) In this example, the cells were captured by magnetic beads. The surface of magnetic beads was coated, respectively, with three concentrations of ten kinds of heparan sulfate (HS) octasaccharides, that is, from SCH-43 to SCH-52. The magnetic beads used in this example were Dynabeads® MyOne™ Streptavidin T1 (˜7-10×10^9 beads/mL, Ø=1 μm, Invitrogen, Thermo Fisher Scientific, USA). Briefly, each octasaccharide of 1 μM, 10 μM and 100 μM concentration were first incubated with magnetic beads in a volume/volume ratio of 1:10, and placed on the wheeling rotator (RM-2L INTELLI-mixer, ELMI Ltd., Latvia) at 25 rpm, C2 mode for 30 mins at room temperature. The beads were then collected using a magnetic particle concentrator (MPC, Dynabeads® MPC®-1, Life Technologies) for 2 mins, followed by discarding the supernatant and washing the coated beads three times with 1 mL of deionized (DI) water. Finally, the coated beads were suspended in the same volume of DI water as the initial volume of Dynabeads®.
(§3) In this example, the capture test for the eight cell lines mentioned above was performed with ten octasaccharides to determine their affinity. Therefore, by using the traditional shaker, 2×10^5 cells were incubated with three kinds of concentration (1 μM, 10 μM and 100 μM) of each octasaccharide for 30 mins. After the incubation, they were washed twice and the amount of captured cells was calculated by a hemocytometer under an inverted microscope. Through statistical analysis by ANOVA, the octasaccharides which bound to one cell line with high specificity was compared to other cell lines.

HepG2 (liver cancer) = assay: as above; type: cell-based; conditions: 30 mins
Excerpt: as §1, §2, §3

KKU100 (CCA cell line) = assay: as above; type: cell-based; conditions: 30 mins
Excerpt: as §1, §2, §3

SNU478 (CCA cell line) = assay: as above; type: cell-based; conditions: 30 mins
Excerpt: as §1, §2, §3

HCT8 (colorectal cancer) = assay: as above; type: cell-based; conditions: 30 mins
Excerpt: as §1, §2, §3

HuCCT1 (CCA cell line) = assay: as above; type: cell-based; conditions: 30 mins
Excerpt: as §1, §2, §3

[2] = tested on: BxPC3 (pancreatic cancer); assay: as above; type: cell-based; conditions: 30 mins
Excerpt: as §1, §2, §3

Huh28 (CCA cell line) = assay: as above; type: cell-based, human; conditions: 30 mins
Excerpt: The cell lines utilized in this example were SNU478, HuCCT1, Huh28, KKU100, MMNK1, BxPC3, HepG2 and HCT8, SNU478, HuCCT1, Huh28, KKU100, and MMNK1 were supplied by Division of Surgery, National Cheng Kung University Hospital, Taiwan. BxPC3 and HepG2 were supplied by Dr. Kuang Hung Cheng, Institute of Biomedical Science, National Sun Yat-sen University, Taiwan. HCT8 was supplied by Professor Hwan-You Chang, Institute of Life Science, National Tsing Hua University, Taiwan. SNU478, HuCCT1, Huh28 and KKU100 were used as target cells for positive selection, which are CCA cell lines respectively derived from the ampulla of Vater, the intrahepatic-metastasized ascites, the intrahepatic bile duct and the opisthorchis viverrini-related hilar bile duct. For negative selection, MMNK1 (immortalized biliary epithelial), and various types of cancer cell lines, including BxPC3 (pancreatic cancer), HepG2 (liver cancer) and HCT8 (colorectal cancer) were used. […]
In this example, the capture test for the eight cell lines mentioned above was performed with ten octasaccharides to determine their affinity. […] After the incubation, they were washed twice and the amount of captured cells was calculated by a hemocytometer under an inverted microscope. […]

white blood cells (WBCs) = assay: On-bench capture test of WBCs using octasaccharide-coated beads; type: cell-based; conditions: WBCs versus CCA cells (Huh28)
Method: In order to determine whether SCH-45 and SCH-46 can be promising tools for use in clinical examination at an early stage or on the prognostic tracking of cancer, such as blood test, an on-bench capture test of WBCs using SCH-45 and SCH-46 of 100 μM-coated beads was performed in this example.
The whole blood used in this example was provided by National Cheng Kung University Hospital and stored at 4° C. (IRB number: A-ER-103-063 and A-ER-105-109). In order to achieve good efficiency in cancer cell capturing using octasaccharide-coated beads with the blood sample, whole blood was pretreated to remove blood cells, including red blood cells (RBCs) and white blood cells (WBCs). In other words, the whole blood pretreatment process contained a RBC lysis step and a WBC depletion step. […] Whole blood was inoculated with 10^5 Huh28 cells in a 1.5 mL Eppendorf tube. Then, on-bench RBC lysis was performed using a commercial RBC lysis buffer (Cat. 420301, BioLegend®, USA) diluted to 1× working concentration with DI water. The 100 μL of spiked sample was incubated with 1×RBC lysis buffer at a 1:10 volume/volume ratio on a wheeling rotor at 25 rpm, C2 mode for 5 mins, and then centrifuged at 1200 rpm for 5 mins to discard the supernatant. The pellets were washed twice and resuspended in 100 μL of 1× phosphate buffered saline (PBS) buffer. […]

[3] = beads coated with 1 μM octasaccharide
[4] = beads coated with 10 μM octasaccharide
[5] = beads coated with 100 μM octasaccharide

## O=C(CCCC[C@@H]1SC[C@@H]2NC(=O)N[C@@H]21)NCCCOCCOCCOCCOCCOCCOCCC(=O)NCCCCCO[C@@H]1O[C@H](C(=O)O)[C@@H](O[C@H]2O[C@H](COS(=O)(=O)O)[C@@H](O[C@@H]3O[C@@H](C(=O)O)[C@@H](O[C@H]4O[C@H](COS(=O)(=O)O)[C@@H](O[C@@H]5O[C@H](C(=O)O)[C@@H](O[C@H]6O[C@H](COS(=O)(=O)O)[C@@H](O[C@@H]7O[C@@H](C(=O)O)[C@@H](O[C@H]8O[C@H](COS(=O)(=O)O)[C@@H](O)[C@H](O)[C@H]8NS(=O)(=O)O)[C@H](O)[C@H]7OS(=O)(=O)O)[C@H](O)[C@H]6NS(=O)(=O)O)[C@H](O)[C@H]5OS(=O)(=O)O)[C@H](O)[C@H]4NS(=O)(=O)O)[C@H](O)[C@H]3OS(=O)(=O)O)[C@H](O)[C@H]2NS(=O)(=O)O)[C@H](O)[C@H]1OS(=O)(=O)O [SCH-45]
[1]; [3]
  capture rate: 55 ± 7%
[1]; [4]
  capture rate: 47 ± 20%
[1]; [5]
  capture rate: 16±8%
HepG2 (liver cancer); [3]
  capture rate: 14 ± 1%
HepG2 (liver cancer); [4]
  capture rate: 11 ± 4%
HepG2 (liver cancer); [5]
  capture rate: 9 ± 6%
KKU100 (CCA cell line); [3]
  capture rate: 42 ± 3%
KKU100 (CCA cell line); [4]
  capture rate: 44 ± 2%
KKU100 (CCA cell line); [5]
  capture rate: 41 ± 11%
SNU478 (CCA cell line); [3]
  capture rate: 20 ± 5%
SNU478 (CCA cell line); [4]
  capture rate: 17 ± 7%
SNU478 (CCA cell line); [5]
  capture rate: 16 ± 8%
HCT8 (colorectal cancer); [3]
  capture rate: 16 ± 3%
HCT8 (colorectal cancer); [4]
  capture rate: 13 ± 0%
HCT8 (colorectal cancer); [5]
  capture rate: 9 ± 2%
HuCCT1 (CCA cell line); [3]
  capture rate: 5 ± 1%
HuCCT1 (CCA cell line); [4]
  capture rate: 5 ± 2%
HuCCT1 (CCA cell line); [5]
  capture rate: 4 ± 2%
[2]; [3]
  capture rate: 16 ± 6%
[2]; [4]
  capture rate: 11 ± 3%
[2]; [5]
  capture rate: 7 ± 3%
Huh28 (CCA cell line); [3]
  capture rate: 66 ± 6%
Huh28 (CCA cell line); [4]
  capture rate: 67 ± 3%
White blood cells (WBCs)
  ratio of WBC capture rate to CCA: 5×10^−5
